Test results published in patent US20260335299A1, “SUBSTITUTED OXOISOINDOLINYL PIPERIDINE-2,6-DIONE COMPOUND AS ANTICANCER AGENT” (BRISTOL-MYERS SQUIBB COMPANY, priority 2023, published 2026).

How the values were obtained:
IKZF3 Aiolos [1] = molecular target: T1, IKZF3 Aiolos (Homo sapiens, UniProt Q96SW2+Q9UKT9); experiment: Jurkat Cellular Degradation Assay (Aiolos); assay type: cell-based; parameters: endogenous in cells; host or cells: Jurkat cells; conditions: Jurkat cells, 72 h; concentration reducing protein level by 50% compared to DMSO alone
T1 sequence (Q9UKT9 whole entry): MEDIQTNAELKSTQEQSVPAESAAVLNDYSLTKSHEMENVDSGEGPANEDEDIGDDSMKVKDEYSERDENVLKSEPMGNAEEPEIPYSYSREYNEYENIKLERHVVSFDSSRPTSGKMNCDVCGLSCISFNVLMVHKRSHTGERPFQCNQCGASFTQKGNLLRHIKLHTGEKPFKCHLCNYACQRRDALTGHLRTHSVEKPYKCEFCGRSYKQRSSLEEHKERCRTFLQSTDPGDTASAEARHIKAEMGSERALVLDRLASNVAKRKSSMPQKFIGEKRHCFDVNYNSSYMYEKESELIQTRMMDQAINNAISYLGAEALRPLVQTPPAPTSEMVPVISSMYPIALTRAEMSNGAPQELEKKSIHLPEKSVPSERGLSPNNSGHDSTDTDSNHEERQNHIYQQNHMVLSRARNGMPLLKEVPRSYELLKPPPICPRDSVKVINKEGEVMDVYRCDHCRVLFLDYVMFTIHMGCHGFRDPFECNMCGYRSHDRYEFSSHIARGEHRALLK
T1 sequence (Q96SW2 whole entry): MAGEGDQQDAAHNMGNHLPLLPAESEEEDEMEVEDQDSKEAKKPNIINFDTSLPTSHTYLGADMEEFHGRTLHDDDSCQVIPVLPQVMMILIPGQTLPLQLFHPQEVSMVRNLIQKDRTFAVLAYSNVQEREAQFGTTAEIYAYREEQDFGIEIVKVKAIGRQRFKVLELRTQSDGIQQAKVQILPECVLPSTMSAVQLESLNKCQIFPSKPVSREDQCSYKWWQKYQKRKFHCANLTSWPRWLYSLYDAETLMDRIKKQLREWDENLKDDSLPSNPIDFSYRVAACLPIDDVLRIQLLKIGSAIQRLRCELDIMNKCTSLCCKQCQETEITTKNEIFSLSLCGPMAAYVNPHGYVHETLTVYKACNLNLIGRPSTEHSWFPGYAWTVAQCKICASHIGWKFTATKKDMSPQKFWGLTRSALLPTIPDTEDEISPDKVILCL
T1 sequence (Q16531 whole entry partner): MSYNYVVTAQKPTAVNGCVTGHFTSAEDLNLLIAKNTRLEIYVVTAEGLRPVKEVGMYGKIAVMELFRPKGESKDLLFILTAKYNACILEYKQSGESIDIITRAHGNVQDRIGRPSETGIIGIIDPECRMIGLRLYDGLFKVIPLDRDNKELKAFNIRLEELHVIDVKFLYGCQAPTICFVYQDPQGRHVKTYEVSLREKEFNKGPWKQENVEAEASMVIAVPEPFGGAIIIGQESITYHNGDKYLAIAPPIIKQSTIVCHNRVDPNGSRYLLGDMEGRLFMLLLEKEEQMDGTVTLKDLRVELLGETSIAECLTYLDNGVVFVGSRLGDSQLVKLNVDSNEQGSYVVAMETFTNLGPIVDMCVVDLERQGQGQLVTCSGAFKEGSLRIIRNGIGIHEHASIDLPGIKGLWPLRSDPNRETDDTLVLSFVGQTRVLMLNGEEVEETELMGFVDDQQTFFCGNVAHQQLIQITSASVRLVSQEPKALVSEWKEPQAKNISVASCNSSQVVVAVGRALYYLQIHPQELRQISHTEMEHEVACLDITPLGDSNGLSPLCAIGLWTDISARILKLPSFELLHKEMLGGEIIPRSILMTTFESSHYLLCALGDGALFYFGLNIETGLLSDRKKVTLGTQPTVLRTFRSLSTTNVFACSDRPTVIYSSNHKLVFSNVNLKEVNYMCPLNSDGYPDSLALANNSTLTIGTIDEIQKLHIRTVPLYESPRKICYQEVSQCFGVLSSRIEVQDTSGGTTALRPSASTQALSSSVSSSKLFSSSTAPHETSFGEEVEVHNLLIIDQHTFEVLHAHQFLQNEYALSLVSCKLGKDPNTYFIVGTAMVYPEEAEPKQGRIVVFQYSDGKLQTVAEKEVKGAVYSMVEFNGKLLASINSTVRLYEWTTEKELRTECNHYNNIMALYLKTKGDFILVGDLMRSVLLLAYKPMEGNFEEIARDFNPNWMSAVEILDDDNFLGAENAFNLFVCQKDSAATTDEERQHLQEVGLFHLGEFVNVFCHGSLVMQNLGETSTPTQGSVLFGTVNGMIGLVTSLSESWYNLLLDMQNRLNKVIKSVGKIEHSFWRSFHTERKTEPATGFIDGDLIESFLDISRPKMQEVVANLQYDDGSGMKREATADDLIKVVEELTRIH
Method: (§1) Jurkat cells were plated at 80,000 cells/well in 40 μL RPMI+10% FBS in a 384-well cell culture plate prior to using acoustic dispensing technology for adding a compound of interest. Cell cultures were incubated for 72 h at 37° C. and 5% CO2. In order to facilitate analysis, cell cultures were spun down at 200 rpm for 5 min and the supernatant was discarded. After shaking the plate to dislodge the cell pellet, cells were resuspended in 50 μL of Fixation Buffer (eBioscience FoxP3 buffer set 00-5523-00) for 60 min at room temperature. After centrifuging and discarding the supernatant, cells were permeabilized with 50 μL of Permeabilization buffer (eBioscience FoxP3 buffer set 00-5523-00) for 10 min at room temperature. Following permeabilization, cells were spun down and the supernatant was replaced with 20 μL fluorescently labelled antibodies against Helios, Ikaros and Aiolos or corresponding Isotype controls in 1× Permeabilization buffer (Ikaros-Alexa488 [Biolegend, Cat #368408, 1:50], Helios-PE [CST, Cat #29360, 1:50], Aiolos-Alexa647 [Biolegend, Cat #371106 Biolegend, 1:25]) and staining reactions were incubated for 1 h at room temperature while protected from light. Subsequently, 30 μL of 1× Permeabilization buffer was added prior to centrifuging the cells and discarding the supernatant. Stained cells were resuspended in 25 μL of flow cytometry staining buffer [PBS+0.2% bovine serum albumin (BSA)] and analyzed using an Intellicyt Ique Plus flow cytometer.
(§2) Table A-1 lists the maximum observed degradation of the IKZF1 protein, IKZF2 protein, and IKZF3 protein as measured in the Jurkat Cellular Degradation assay. The results in Table A-I were rounded to two digits. In the Jurkat Cellular Degradation assay, a value of 100% indicated no detectable protein remaining or complete degradation of the protein; and a value of 0% indicated no detectable degradation of the protein by the test compound.

IKZF3 Aiolos [2] = molecular target: T1, IKZF3 Aiolos; experiment: Human CD8+ T Cell Reprogramming (Degradation) Assay (Aiolos); assay type: cell-based; parameters: Cryopreserved healthy donor human peripheral blood mononuclear cells (PBMC); endogenous in cells; host or cells: CD8+ T cells within healthy donor human PBMC; conditions: CD8+ T cells, human PBMC, 24 h; concentration reducing protein level by 50% compared to DMSO alone
Method: (§3) Cryopreserved healthy donor human peripheral blood mononuclear cells (PBMC) from healthy donors were thawed and seeded at 500,000 cells/well of 96-well round bottom plates in RPMI 1640 media (Gibco) supplemented with 10% FBS, Pen/Strep (Gibco), MEM-NEAA (Gibco), and sodium pyruvate (Gibco). Cells were treated with titrated doses of compound for 24 hours at 37° C., 5% CO2 before analyzing by flow cytometry.
(§4) For flow cytometry staining, cells were washed twice with flow cytometry staining buffer (Thermo Fisher) and incubated in Human Tru-stain Fc block (Biolegend) for 10 minutes before adding eFluor780 viability dye (Thermo Fisher) and surface marker antibody cocktail containing LD-eFluor780, CD3-BUV-395, CD4-BUV805, CD8-FITC, and CD25-BV605 for 30 minutes at 4° C. Cells were then fixed and permeabilized by incubation with permeabilization buffer (eBioscience FoxP3 buffer set 00-5523-00) for 30 minutes at 4° C. as per the kit manufacturer's instructions. Cells were washed twice with the Perm/Wash buffer supplied in the kit as per the manufacturer's instructions and incubated overnight at 4° C. with an intracellular antibody cocktail comprised of antibodies specific for the transcription factors (i.e., Foxp3-BV421, HELIOS-PE-Cy7, EOS-PE, IKAROS-PECF594, AIOLOS-AF647). Cells were washed twice with Perm/Wash buffer and resuspended in flow cytometry staining buffer (Thermo Fisher) prior to acquisition. Sample acquisition and analysis was performed using a BD LSRFortessa (BD Biosciences) flow cytometer. Single-stain controls for each fluorochrome were prepared using UltraComp eBead Compensation Beads (Thermo Fisher). Data were analyzed using FlowJo version 10 and GraphPad Prism Software.
as §2, with “D-1” for “A-1”, “protein” for “protein, IKZF2 protein,”, “Human CD8^+ T Cell Reprogramming” for “Jurkat Cellular Degradation”, “D-1” for “A-I”

IKZF1 Ikaros [3] = molecular target: T2, IKZF1 Ikaros (Homo sapiens, UniProt Q13422+Q96SW2); experiment: Jurkat Cellular Degradation Assay (Ikaros); assay type: cell-based; parameters: endogenous in cells; host or cells: Jurkat cells; conditions: Jurkat cells, 72 h; concentration reducing protein level by 50% compared to DMSO alone
T2 sequence (Q13422 whole entry): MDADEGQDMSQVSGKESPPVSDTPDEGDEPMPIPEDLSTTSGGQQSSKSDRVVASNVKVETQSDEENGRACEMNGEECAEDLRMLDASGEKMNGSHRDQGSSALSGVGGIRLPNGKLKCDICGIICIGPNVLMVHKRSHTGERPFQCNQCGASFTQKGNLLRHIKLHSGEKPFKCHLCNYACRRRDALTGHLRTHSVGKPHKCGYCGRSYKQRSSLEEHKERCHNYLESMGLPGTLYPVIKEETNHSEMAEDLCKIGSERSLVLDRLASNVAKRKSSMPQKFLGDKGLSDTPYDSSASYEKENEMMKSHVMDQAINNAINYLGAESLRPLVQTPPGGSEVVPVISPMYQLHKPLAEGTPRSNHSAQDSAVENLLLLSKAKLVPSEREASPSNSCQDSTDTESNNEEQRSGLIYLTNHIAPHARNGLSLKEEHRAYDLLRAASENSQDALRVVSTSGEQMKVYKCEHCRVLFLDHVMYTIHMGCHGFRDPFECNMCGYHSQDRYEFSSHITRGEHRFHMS
T2 sequence (Q96SW2 whole entry): as the sequence (Q96SW2 whole entry) above
T2 sequence (Q16531 whole entry partner): as the sequence (Q16531 whole entry partner) above
Method: as §1, §2

IKZF1 Ikaros [4] = molecular target: T2, IKZF1 Ikaros; experiment: Human Regulatory T Cell Degradation Assay (Ikaros); assay type: cell-based; conditions: human regulatory T cells, 20 h; concentration reducing protein level by 50% compared to DMSO alone
Method: Cryopreserved human regulatory T cells were thawed in RPMI+10% FBS+20 ng/mL IL-2. After being spun at 1200 rpm for 5 mins, the cells were resuspended in RPMI+10% FBS+20 ng/ml and rested at 37° C. with 5% CO2 for 3 hours. The cells were then plated at 40,000 cells/well in 40 μL RPMI+10% FBS+20 ng/mL human IL-2 in a 384 well cell culture plate prior to using acoustic dispensing technology (ECHO 555) for adding compounds of interest. Cell cultures were incubated for 20 hours at 37° C. and 5% CO2. In order to facilitate analysis, cell cultures were spun down at 1200 rpm for 5 minutes and the supernatant was discarded using an EL406 plate washer. After washing three times with […] PBS, cell pellets were resuspended in 50 μL of […] viability staining solution (Life Technologies, Cat #L34975) and incubated for 30 minutes on ice protected from light. Cells were washed three times with 70 μL PBS+0.5% BSA using an EL406 plate washer. After shaking the plate to dislodge the cell pellet, cells were resuspended in 50 μL of Fixation Buffer (eBioScience FoxP3 buffer set 00-5523-00) for 60 minutes at room temperature. After centrifuging and discarding the supernatant, cells were permeabilized with 50 μL of permeabilization buffer (eBioScience FoxP3 buffer set 00-5523-00) for 10 minutes at room temperature. Following permeabilization, cells were spun down and the supernatant was replaced with 30 μL fluorescently labelled antibodies against the intracellular targets Helios (Helios-APC [BioLegend, Cat #137222, 1:50])]), Aiolos, and Ikaros 1× Permeabilization buffer and staining reactions were incubated for 1 hour at room temperature; protected from light. Subsequently, […] Permeabilization buffer was added prior to centrifuging the cells and discarding the supernatant. Stained cells were resuspended in 30 μL of flow cytometry staining buffer (PBS+0.5% BSA) and analyzed using an Intellicyt Ique Plus flow cytometer.
as §2, with “B-1” for “A-1”, “protein and” for “protein,”, “IKZF2” for “IKZF2 protein, and IKZF3”, “Human Regulatory T Cell” for “Jurkat Cellular”, “B-1” for “A-I”

IKZF1 Ikaros [5] = molecular target: T2, IKZF1 Ikaros; experiment: Human CD8+ T Cell Reprogramming (Degradation) Assay (Ikaros); assay type: cell-based; parameters: Cryopreserved healthy donor human peripheral blood mononuclear cells (PBMC); endogenous in cells; host or cells: CD8+ T cells within healthy donor human PBMC; conditions: CD8+ T cells, human PBMC, 24 h; concentration reducing protein level by 50% compared to DMSO alone
Method: as §3, §4
as §2, with “D-1” for “A-1”, “protein” for “protein, IKZF2 protein,”, “Human CD8^+ T Cell Reprogramming” for “Jurkat Cellular Degradation”, “D-1” for “A-I”

solid tumors = conditions: sometimes; patients with solid tumors / advanced malignancies; cited from earlier work

SMILES | DC50 (IKZF3 Aiolos [1]) [µM] | DC50 (IKZF3 Aiolos [2]) [nM] | DC50 (IKZF1 Ikaros [3]) [µM] | DC50 (IKZF1 Ikaros [4]) [µM] | DC50 (IKZF1 Ikaros [5]) [nM] | clinical response in patients with solid tumors (solid tumors)
O=C1CCC(N2Cc3c(ccc(-c4cc(CN5CC(c6ccccc6)C5)ccn4)c3F)C2=O)C(=O)N1 (stereo not shown) [Comparative Compound A, 3-(4-fluoro-1-oxo-5-(4-((3-phenylazetidin-1-yl)methyl)pyridin-2-yl)isoindolin-2-yl) piperidine-2,6-dione, reference compound] | > 10 | > 1000 | > 10 | > 10 | > 1000 | 
Nc1nc(-c2ccc3c(c2)CN(C2CCC(=O)NC2=O)C3=O)ccc1CN1CC2(CCC2)C1 (stereo not shown) [Comparative Compound B, 3-(5-(5-((2-azaspiro[3.3]heptan-2-yl)methyl)-6-aminopyridin-2-yl)-1-oxoisoindolin-2-yl) piperidine-2,6-dione, reference compound] | > 10 | > 1000 | > 10 | > 10 | > 1000 | 
Cc1nc2cccc(N)c2c(=O)n1C1CCC(=O)NC1=O (stereo not shown) [avadomide] |  |  |  |  |  | modest responses of stable disease
Nc1cccc2c1CN(C1CCC(=O)NC1=O)C2=O (stereo not shown) [lenalidomide] |  |  |  |  |  | modest responses of stable disease
Nc1cccc2c1C(=O)N(C1CCC(=O)NC1=O)C2=O (stereo not shown) [pomalidomide] |  |  |  |  |  | modest responses of stable disease
